Laboratory results: patent US10925971B2, “Methods of treating PRLR positive breast cancer” (Regeneron Pharmaceuticals, Inc., priority 2016, dated 2021)
“Also recorded” adds a separate entry of the source.

Tests used:
[1] = system: T47Dv11 tumors; assay: T47Dv11 breast tumor xenograft, single agent and combination with fulvestrant; type: in vivo, C.B.-17 SCID mice; settings: for Average Tumor Growth Inhibition (%) / Final Tumor Volume (mean ± SD): T47DvII tumors in SCID mice, Day 70
Procedure: The T47Dv11 model was used to assess the activity of H1H6958N2-DM1 in a model with significant levels of endogenous PRLR. […] Initially, 10×10^6 parental T47D cells were implanted subcutaneously (SC) into the left flank of female C.B.-17 SCID mice (Taconic, Hudson N.Y.). Tumors were supplemented with a 90-day release 1.7 mg estrogen pellet (Innovative Research America). Where T47D tumors were observed, they were excised and cut into 3 mm fragments and subsequently implanted into the left flank of separate female C.B.-17 SCID mice. Subsequent passaging was performed until a large tumor was disaggregated into a single cell suspension. The cells (named T47Dv11) from this tumor were then cultured in vitro and expanded. […] For efficacy studies, mice were implanted with 7.5×10^6 T47Dv11 cells into the left flank of female C.B.-17 SCID mice supplemented with a 90-day release 0.72 mg/pellet estrogen pellet. For MCF7 and MCF7/PRLR tumor xenografts, 2×10^7 MCF7/PRLR cells were implanted SC into the left mammary fat pad of female NCr nude mice (7-8 weeks old) supplemented with 90-day release 0.72 mg/pellet estrogen pellets. Tumors were measured with calipers twice a week for the duration of each study. Tumor volume was calculated using the formula TV=(length×width^2)/2.
After T47Dv11 tumors reached an average volume of ˜150-200 mm^3 (14-16 days post implantation), mice were randomized into treatment groups (n=8-9 mice/group) and received a single dose or three once-weekly doses of H1H6958N2-DM1, control ADC, or vehicle control, administered systemically by intravenous tail-vein injection. […] Tumor size and body weight were measured in vivo twice per week throughout the duration of the study.
Next, the combination of H1H6958N2-DM1 with the SERD fulvestrant was tested in the T47Dv11 xenograft model. Here, the activity of either agent at partially effective doses was compared against the activity of the agents in combination. First, a dose titration study of weekly administration of fulvestrant was performed in order to establish its single agent activity (FIG. 4).
For the subcutaneous tumors, average tumor size as well as tumor growth inhibition relative to the Vehicle treated group were calculated for each group. Tumors were measured with calipers twice a week until the average size of the vehicle group reached 1200 mm^3. Tumor size was calculated using the formula (length×width^2)/2. For all studies, tumor growth inhibition was calculated according to the following formula: (1−((Tfinal−Tinitial)/(Cfinal−Cinitial)))*100, where T (treated group) and C (control group) represent the mean tumor mass on the day the vehicle group reached 1000 mm^3.

[2] = system: PRLR expression in T47DvII cells; assay: PRLR expression after continuous culture with fulvestrant (flow cytometry or western blotting); type: cell-based, human; settings: continuous culture with 10 or 100 nM, data not shown
[3] = system: TM00107 PDX tumors; assay: TM00107 patient derived xenograft (PDX) breast cancer model, tumor volume; type: in vivo, NOD SCID gamma (NSG) mice; settings: intravenous every 4 days, 4 doses
Procedure: Efficacy of H1H6958N2-DM1 was also assessed in a patient derived xenograft (PDX) model of breast cancer that may better represent the response in patients. NOD SCID gamma (NSG) mice bearing tumor fragments of the TM00107 PDX breast cancer tumor were sourced from The Jackson Laboratories. The TM00107 PDX model was derived from an ER+/−/PR−/HER2− metastatic breast adenocarcinoma. PRLR expression was confirmed by microarray analysis and immunohistochemistry on tumor sample slides provided by The Jackson Laboratory (data not shown). When tumors were an average volume of ˜400-600 mm^3 (21 days post implantation), mice were randomized into treatment groups (n=7 mice/group) and were administered H1H6958N2-DM1, control ADC, or vehicle control by intravenous injection once weekly for a total of 4 weeks. A separate treatment group was administered paclitaxel by intravenous injection every 4 days for a total of 4 doses.

[4] = system: HEK293 (293) cells; assay: In vitro cell viability (cell kill) assay, CCK8; type: cell-based, human; settings: 293; Table 19
How it was run: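 Viability of hPRLR-expressing 293, PC3 and MCF7 cells is measured after 3 days with non-cleavable-linker DM1 ADCs (final 500 nM–5 pM). IC50 comes from a four-parameter logistic fit of background-corrected percent-of-untreated values over 10 points.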

[5] = system: PC3 cells; assay: In vitro cell viability (cell kill) assay, CCK8; type: cell-based, human; settings: Table 18
How it was run: (§1)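 Three-day exposure to DM1-conjugated anti-PRLR antibodies or DM1-SMe, 500 nM down to 5 pM, in cells engineered to express human PRLR. Surviving cells are quantified by CCK8 absorbance or by imaged Hoechst nuclear counts, relative to untreated wells.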

[6] = system: PC3/hPRLR cells; assay: In vitro cell viability (cell kill) assay, CCK8; type: cell-based, human; settings: Table 18
How it was run: as §1

[7] = system: MCF7 (MCF7/ATCC) cells; assay: In vitro cell viability (cell kill) assay, nuclear counts; type: cell-based, human; settings: MCF7/ATCC
Description: (§2) PRLR-overexpressing cells, including HEK293, PC3, MCF7 and NCI-N87, were generated to assess the ability of anti-PRLR conjugated antibodies to reduce cell viability. For comparative purposes, PC3 and T47D cells with overexpressed ErbB2 were also generated, as well as an MCF7 cell line over-expressing both hPRLR and hErbB2. Briefly, Lipofectamine® 2000-mediated transfection methodology was utilized to generate HEK293 cells expressing human PRLR (HEK293/hPRLR) or human ErbB2 (HEK293/hErbB2). Lipofectamine LTX with Plus Reagent was used to generate PC3 cells expressing human PRLR (PC3/hPRLR) or human ErbB2 (PC3/hErbB2). Lentiviral-mediated transduction was utilized to generate MCF7 cells expressing human PRLR (MCF7/hPRLR), NCI-N87 cells expressing human PRLR (NCI-N87/hPRLR), T47D cells over-expressing human ErbB2 (T47D/hErbB2), and MCF7 cells expressing both human PRLR and human ErbB2 (MCF7/hPRLR/hErbB2). All lines were selected for at least two weeks in complete growth media plus appropriate selection reagents. Stably expressing populations were enriched for PRLR expression via FACS using the anti PRLR antibody Control I.
(§3) Next, the ability of anti-PRLR-DM1 antibody-drug conjugates (i.e., anti-PRLR antibodies conjugated to DM1 via a non-cleavable linker [SMCC]) to reduce cell viability was determined using in vitro cell based assays. Cells were seeded in PDL-coated 96 well plates at 1500 to 10000 cells per well in complete growth media and allowed to grow overnight. For cell viability curves, ADCs or free DM1 (as the methyl disulfide derivative DM1-SMe) were added to the cells at final concentrations ranging from 500 nM to 5 pM and incubated for 3 days. The 293, PC3 and T47D cells were incubated with CCK8 (Dojindo, Rockville, Md.) for the final 1-3 hours and the absorbance at 450 nm (OD450) was determined on a Flexstation3 (Molecular Devices, Sunnyvale, Calif.). MCF7 cells were treated with Hoechst 33342 nuclear stain while being fixed with 4% formaldehyde. Images were acquired on the ImageXpress micro XL (Molecular Devices, Sunnyvale, Calif.) and nuclear counts were determined via Columbus image analysis software (Perkin Elmer, Shelton, Conn.). Background OD450 values (PC3, 293, and T47D) or nuclear counts (MCF7) from digitonin (40 nM) treated cells was subtracted from all wells and viability was expressed as a percentage of the untreated controls. IC50 values were determined from a four-parameter logistic equation over a 10-point response curve (GraphPad Prism).

[8] = system: MCF7/hPRLR (MCF7/PRLR) cells; assay: as above; type: cell-based, human
Description: as §2, §3

[9] = system: T47D cells; assay: In vitro cell viability (cell kill) assay, CCK8; type: cell-based, human; settings: T47D, Table 19
Procedure: as §3

[10] = system: MCF7/PRLR tumors; assay: MCF7/PRLR breast cancer xenograft, tumor size and tumor growth inhibition; type: in vivo, NCr nude mice; settings: NCr Nude mice, multi-dose 0.2 mg/kg
Description: (§4) Briefly, 20×10^6 MCF7/PRLR cells (ATCC HTB-22 transfected with full length hPRLR as previously described) were implanted subcutaneously into the left mammary fat pad of female NCr nude mice. In other studies, 10×10^6 PC3/PRLR (ATCC CRL-1435 transfected with full length hPRLR as previously described) were implanted subcutaneously into the left flank of male SCID mice. Additionally, 10×10^6 parental T47D (ATCC HTB-133) or 7.5×10^10 T47D #11 cells (ATCC HTB-133 serially passaged in vivo as described below) were subcutaneously implanted into the left flank of female CB17 SCID mice. All mice were obtained from Taconic (Hudson, N.Y.). Each bolus of cells was supplemented with a 90-day estrogen release pellet (1.7 mg/pellet; Innovative Research America, Sarasota Fla.). […] Control reagents included PBS vehicle, free methyl-disulfide DM1 (DM1-SMe) and isotype Control 1-DM1.
(§5) In multi-dose studies, mice were dosed once a week for a total of three weeks with tumor volumes and body weights being monitored twice weekly throughout the study. Test ADCs were dosed at 5 and/or 15 mg/kg in the multi-dose studies. In single-dose studies, mice received a single dose of test ADC, and tumor volumes and body weights were monitored twice weekly throughout the study. Test ADCs were dosed at 1, 2.5, 5, and 15 mg/kg in the single-dose studies. Average tumor size as well as tumor growth inhibition relative to the vehicle treated group were calculated for each group. Tumors were measured with calipers twice a week until the average size of the vehicle group reached 1000 mm^3. Tumor size was calculated using the formula (length×width^2)/2. Tumor growth inhibition was calculated according to the following formula: (1−((Tfinal−Tinitial)/(Cfinal−Cinitial)))*100, where T (treated group) and C (control group) represent the mean tumor mass on the day the vehicle group reached 1000 mm^3. […] Results are summarized in Tables 21-25 (multi-dose) and Table 26 (single dose). (NT=not tested in the particular experiment shown).

[11] = system: PC3/PRLR tumors; assay: PC3/PRLR xenograft, tumor size and tumor growth inhibition; type: in vivo, SCID mice; settings: SCID mice, multi-dose 0.2 mg/kg
Description: as §4, §5

[12] = system: T47D#11 tumors; type: in vivo, CB17 SCID mice; settings: mouse, in vivo, 0.2 mg/kg
Description: as §4, §5

[13] = MCF7/PRLR tumors TRIAL #1, Day 52
[14] = MCF7/PRLR tumors TRIAL #2, Day 63
[15] = PC3/PRLR tumors TRIAL #1, Day 63
[16] = PC3/PRLR tumors TRIAL #2, Day 55

SMILES: C[C@]12CC[C@@H]3c4ccc(O)cc4C[C@@H](CCCCCCCCC[S+]([O-])CCCC(F)(F)C(F)(F)F)[C@H]3[C@@H]1CC[C@@H]2O (stereo partly drawn) [fulvestrant, reference compound]
- Average Tumor Growth Inhibition (%) ([1]; 150 mg/kg): 52%
- Final Tumor Volume (mean ± SD) ([1]; 150 mg/kg): 660 ± 205 mm^3
- Average Tumor Growth Inhibition (%) ([1]; 250 mg/kg): 74%
- Final Tumor Volume (mean ± SD) ([1]; 250 mg/kg): 433 ± 189 mm^3
- anti-tumor activity ([1]; combination study, individual treatment 150 or 250 mg/kg subcutaneously once weekly): Significant anti-tumor activity
- PRLR expression [2]: did not decrease PRLR expression; also recorded: did not significantly reduce PRLR expression

SMILES: CC(=O)O[C@H]1C(=O)[C@@]2(C)[C@H]([C@H](OC(=O)c3ccccc3)[C@]3(O)C[C@H](OC(=O)[C@H](O)[C@@H](NC(=O)c4ccccc4)c4ccccc4)C(C)=C1C3(C)C)[C@]1(OC(C)=O)CO[C@@H]1C[C@@H]2O [paclitaxel, reference compound]
- tumor growth [3]: did not have an effect on tumor growth

SMILES: COc1cc2cc(c1Cl)N(C)C(=O)C[C@H](OC(=O)[C@H](C)N(C)C(=O)CCSSC)[C@]1(C)O[C@H]1[C@H](C)[C@@H]1C[C@@](O)(NC(=O)O1)[C@H](OC)/C=C/C=C(\C)C2 [DM1-SMe, reference compound]
- % Kill [4]: 95%
- IC50 [4]: 1.2 nM
- % Kill [5]: 90%
- IC50 [5]: 0.5 nM
- % Kill [6]: 70%
- IC50 [6]: 1 nM
- % Kill ([7]; Table 18): 80%
- IC50 ([7]; Table 18): 3 nM
- % Kill ([7]; Table 20): 80%
- IC50 ([7]; Table 20): 1.3 nM
- % Kill ([8]; Table 18): 86%
- IC50 ([8]; Table 18): 1.9 nM
- % Kill ([8]; Table 20): 80%
- IC50 ([8]; Table 20): 0.8 nM
- % Kill [9]: 100%
- IC50 ([9]; read-out: IC50): 1.5 nM
- Average Tumor Growth Inhibition (%) [10, 13]: 57%
- Final Tumor size mm^3 (mean ± SEM) [10, 13]: 625 ± 141 mm^3
- Average Tumor Growth Inhibition (%) [10, 14]: −33%
- Final Tumor size mm^3 (mean ± SEM) [10, 14]: 1080 ± 451 mm^3
- Average Tumor Growth Inhibition (%) [11, 15]: −5%
- Final Tumor size mm^3 (mean ± SEM) [11, 15]: 1361 ± 120 mm^3
- Average Tumor Growth Inhibition (%) [11, 16]: 7%
- Final Tumor size mm^3 (mean ± SEM) [11, 16]: 1147 ± 59 mm^3
- Average Tumor Growth Inhibition (%) [12]: −19%
- Final Tumor size mm^3 (mean ± SEM) [12]: 1433 ± 23 mm^3
